From paper PMC6150246, “Design, Synthesis and Preliminary Biological Evaluation of Novel Benzyl Sulfoxide 2-Indolinone Derivatives as Anticancer Agents” (Molecules : A Journal of Synthetic Chemistry and Natural …, 2017)

Tests used:
[1] = test system: human lung carcinoma A549; assay: MTS cytotoxicity assay, A549; assay type: cell-based; settings: Homo sapiens, A549, 48 h treatment
From the text: (§1) To investigate the relationship between anticancer activity and tyrosine kinase inhibitory activity, these compounds were further evaluated for in vitro cytotoxicity against five cancer cell lines (human cervical carcinoma cell line HeLa, human breast carcinoma cell line MCF-7, human liver carcinoma cell line HepG2, human tongue carcinoma cell line SCC-15, and human lung carcinoma A549) using MTS assay. Indo 5 was also used as a reference compound.
(§2) The five types of human cancer cell lines (HeLa, HepG2, MCF-7, SCC-15, and A549) were cultured aseptically using Dulbecco’s modified Eagle’s medium (DMEM) supplemented with 10% (v/v) fetal bovine serum (FBS) and penicillin (100 units mL^−1)/streptomycin ([…]), at pH 7.2 and 5% CO2 humidified atmosphere at 37 °C. After attaining 80% confluence, the cells were trypsinized with 0.25 trypsin–EDTA and diluted with media to a fixed number of cells.
(§3) Cytotoxic activity was assessed using the standard MTS method by using triplicate assay. The cells were seeded into 96-well plates containing the medium at the density of 4000–6000 cells/mL (100 μL/well). The compounds were dissolved in DMSO to the concentration of 100 mM and diluted in a culture medium to the concentrations needed. After 24 h, the cultured cells were treated with concentrations of synthesized compounds (3.125 μM to 100 μM for tumor cells) for 48 h. After 48 h of incubation, the supernatant was replaced by fresh medium (100 μL/well) and 10 μL MTS reagent ([3-(4,5-dimethylthiazol-2-yl)-5-(3-carboxymethoxyphenyl)-2-(4-sulfophenyl)-2H-tetrazolium, inner salt]) was added to each well. The plate was further incubated for 3 h at 37 °C in 5% CO2. The optical absorbance in individual wells was determined at 492 nm using a microplate reader. The inhibition rates were calculated by the following formula: Inhibition rate (%) = (ODnegative control − ODsample)/(ODnegative control − ODblank) × 100%
(§4) IC50 was calculated using GraphPad Prism Software (GraphPad Prism 5, La Jolla, CA, USA). For each concentration, at least three wells were performed to calculate the average parameter.

[2] = test system: human tongue carcinoma cell line SCC-15; assay: MTS cytotoxicity assay, SCC-15; assay type: cell-based; settings: for IC50: Homo sapiens, SCC-15, 48 h treatment
From the text: as §1, §2, §3, §4

[3] = test system: human breast carcinoma cell line MCF-7; assay: MTS cytotoxicity assay, MCF-7; assay type: cell-based; settings: for IC50: Homo sapiens, MCF7, 48 h treatment
From the text: as §1, §2, §3, §4

tyrosine kinase = assay: Tyrosine kinase inhibitory activity assay (self-made ELISA kit); assay type: biochemical; settings: tyrosine kinase tissue extract, 37 °C 30 min
Description: The 16 designed compounds were first evaluated for tyrosine kinase inhibitory activity using ELISA assay. Indo 5 was used as a reference compound. The kit was self-made and is a very effective and economical method for preliminary tyrosine kinase inhibitory activity evaluation.
The tyrosine kinase inhibitory activity assay was performed as described in the literature. Details of the experimental procedures are presented in Supplementary Materials associated with this article. The IC50 was calculated using GraphPad Prism Software (GraphPad Prism 5, La Jolla, CA, USA). For each concentration, at least three wells were performed to calculate the average parameter.
100μL to each well. The plate was covered with its lid, and incubated at 4℃ overnight (10-12 hours). Then it was washed with 200μL elution buffer once, and dried at 37℃ for 2 h. After that, it was washed with 10mM PBS once, dried at room temperature, and then stored at 4℃ […]
2.1.5. Groups: Blank control: 60μL 1×tyrosine kinase buffer + 50μL 1×tyrosine kinase buffer containing ATP; Negative control: 10μL 1×tyrosine kinase buffer + 50μL 1×tyrosine kinase buffer containing tissue extract + 50μL 1×tyrosine kinase buffer containing ATP; Positive control: 10μL 1×tyrosine kinase buffer containing L029 + 50μL 1×tyrosine kinase buffer containing tissue extract + 50μL 1×tyrosine kinase buffer containing ATP; Vehicle control: 10μL 1×tyrosine kinase buffer containing DMSO + 50μL 1×tyrosine kinase buffer containing tissue extract + 50μL 1×tyrosine kinase buffer containing ATP; Compounds to be screened: 10μL 1×tyrosine kinase buffer containing compounds to be tested + 50μL 1× tyrosine kinase buffer containing tissue extract + 50μL 1×tyrosine kinase buffer containing ATP. (First, L029 and the compounds were allowed to interact with the tyrosine kinase tissue extract at room temperature for 10 min in advance, and did the same to the Blank control and the Vehicle control, then 50μL 1×tyrosine kinase buffer containing ATP was added to […]
2.1.6. Tyrosine kinase inhibitory activity assay: 1×tyrosine kinase buffer was prepared by evenly mixing 1 mL 10× tyrosine kinase buffer with 9 mL DDW. The tissue extract was diluted with 1×tyrosine kinase buffer appropriately, mixed with it gently and evenly, and placed on ice. ATP stock solution was mixed with 1×tyrosine kinase buffer at the final concentration of 3mM , and placed on ice. The microplate was added in respective wells with the groups formulated as above, covered with the lid, and incubated at 37℃ for 30 min. The microplate was washed with 200μL elution buffer and tapped until the residual buffer was removed, and this procedure was repeated for five times. To each well, 100μL antibody diluent (antibody elution buffer diluted at a ratio of 1:2000) was added. The microplate was covered with the lid, and incubated at room temperature for 30 min. OPD solution was prepared by addition of 4 mg OPD into a mixture of 4.86 mL 0.1 mol/L citric acid solution and 5.14 mL 0.2 mol/L Na2HPO4 solution, followed by addition of 50μL 30% H202 to allow for complete dissolution, and then was protected from light. The antibody solution was […]
removed. The microplate was washed with 200μL elution buffer and tapped until the residual buffer was removed, and this procedure was repeated for five times. 100μL freshly prepared OPD was added, and reacted at room temperature light tight for precisely 7 min. Negative […]
100μL 2.5 N H2SO4 was added to terminate the reaction. OD
2.1.7. Sample screening: Samples were screened preliminarily by using triplicate assay. The effect of the samples on tyrosine kinase inhibitory activity was tested, and the inhibition rate was calculated. Inhibition rate (%)=(ODnegative control – ODsample) / (ODnegative control* – ODblank) × 100%; *While calculating inhibition rate of positive drugs, ODnegative control in the equation was replaced with ODvehicle control to exclude the influence of DMSO on tyrosine kinase activity. […]
2. S. Praveen Kumar, Jiri Gut, Rita C. […]

[4] = test system: five human cancer cell lines (HeLa, HepG2, MCF-7, SCC-15, and A549); assay: MTS cytotoxicity assay, across the cancer cell line panel; assay type: cell-based; settings: for IC50: Homo sapiens, average over the cancer cell lines, read-out: average IC50 value (antitumor potential); for anticancer / antiproliferative activity over the cell line panel, in words: MTS, Indo 5 as reference
From the text: as §1, §2, §3, §4

[5] = test system: human cervical carcinoma cell line HeLa; assay: MTS cytotoxicity assay, HeLa; assay type: cell-based; settings: for IC50: Homo sapiens, HeLa, 48 h treatment
From the text: as §1, §2, §3, §4

[6] = test system: human liver carcinoma cell line HepG2; assay: MTS cytotoxicity assay, HepG2; assay type: cell-based; settings: for IC50: Homo sapiens, HepG2, 48 h treatment
From the text: as §1, §2, §3, §4

| SMILES | IC50 [1] [µM] | activity against the SCC-15 cell line, in words [2] | IC50 [2] [µM] | activity against the MCF-7 cell line, in words [3] | IC50 [3] [µM] | IC50 (tyrosine kinase) [µM] | IC50 [4] [µM] | anticancer / antiproliferative activity over the cell line panel, in words [4] | melting point [°C] | IC50 [5] [µM] | activity against the HepG2 cell line, in words [6] | IC50 [6] [µM] | activity against the HeLa cell line, in words ([5]; Indo 5 as reference) |
| --- | --- | --- | --- | --- | --- | --- | --- | --- | --- | --- | --- | --- | --- |
| O=C1Nc2ccccc2/C1=C/[S+]([O-])Cc1ccc(Br)cc1 (stereo not shown) [Compound 6j, (Z)-3-(((4-Bromobenzyl)sulfinyl)methylene)indolin-2-one] | 44 ± 1.89 | considerable cytotoxic activity | 34.9 ± 0.34 | good antitumor activity | 30.77 ± 0.29 | 1.34 ± 0.03 | < 40 | comparable antiproliferative activity against four cancer cell lines compared with compound Indo 5 | 195 to 196 | 24.1 ± 0.52 | considerable cytotoxic activity | 36.9 ± 0.49 |  |
| O=C1Nc2ccc(Br)cc2/C1=C/[S+]([O-])Cc1ccccc1 (stereo not shown) [Compound 6o, (Z)-3-((Benzylsulfinyl)methylene)-5-bromoindolin-2-one] | 54.9 ± 0.66 | considerable cytotoxic activity | 28.6 ± 1.58 | good antitumor activity | 32.3 ± 0.77 | 2.69 ± 0.29 | < 40 | comparable antiproliferative activity against four cancer cell lines compared with compound Indo 5 | 200 to 201 | 18.2 ± 0.66 | considerable cytotoxic activity | 54.4 ± 0.88 | stronger activity than Indo 5 |
